Entries after “also recorded” stand apart in the source; their conditions may differ. Where two headings read alike, the source gives them in different places.
How the values were obtained:
[1] = tested on: Nav1.2, Nav1.3, Nav1.4, Nav1.5, Nav1.7; conditions: reference not given; cited from earlier work
[2] = tested on: formalin-induced pain behaviors in rats; experiment: formalin-induced inflammatory rat model; assay type: in vivo, rat (Sprague-Dawley); conditions: for pain score over the 40 min period: mean ± SEM, saline 569.2 ± 43.5 s
Protocol: Acute and chronic nociceptive responses were measured using the rat paw formalin test as descried by Dubission and modified by Malmberg. Adult Sprague-Dawley rats (male, weighing 180–220 g) were used for this behavioral test. During the test, each rat was placed into open polyvinyl cages (30 cm × 40 cm × 30 cm) and at least 30 min before administration of the toxin. All agents were administered 30 min prior to s.c. intraplantar formalin injection. A volume of 50 μL formalin (5%) solution was used as previously described and injected into the plantar surface of one hind paw. Lifting, favoring, licking, shaking and flinching of the injected paw were recorded as nociceptive responses. The total time of the nociceptive response was measured every 5 min and […] (mean ± SEM). Recording of nociceptive behavior commenced immediately after formalin injection and was continued for 40 min.

[3] = tested on: SNI-induced mechanical allodynia in rats; assay type: in vivo, rat (Sprague-Dawley); conditions: for withdrawal threshold to von Frey hair: 200 μg/kg i.p., mean ± SEM, n = 6
Protocol: The spared nerve injury was produced as described previously by Decosterd and Woolf. The rats (male, weighing 180–220 g) were anesthetized with ketamine (300 mg/kg) and placed on a pad. Aseptic techniques were used, and the sciatic nerve and its three terminal branches, including the sural, common peroneal and tibial nerves, were exposed, ligated and transected. Muscle and skin were closed with 4-0 polydiaxone and wound clips. Sham controls involved the exposure of the sciatic nerve and its branches without any lesion.
Allodynia was assessed 3 days after SNI surgery, and only rats that developed allodynia, as defined by a significant decrease in their mechanical threshold using von Frey filament, were used. Tactile allodynia was assessed with calibrated von Frey filaments (Stoelting, Wood Dale, IL, USA) using an up-down paradigm. Mechanical sensitivity was determined by applying a series of twenty calibrated von Frey filaments (0.008–2 g, 2–60 g) to the plantar aspect of the left hind paw. […] A response was indicated by brisk withdrawal of the hind paw.

[4] = tested on: acetic acid-induced abdominal constriction responses in mice; assay type: in vivo, mouse (ICR); conditions: 15 min before acetic acid, 30 min count, n = 6
Protocol: The abdominal constriction responses induced by intraperitoneal (i.p.) injection of 0.2 mL acetic acid (0.8%), including contraction of the abdominal muscle and stretching of the hind limbs, were performed according to procedures described by Collier et al.. Mice (male, weighing 20–25 g) were pre-treated with the test samples dissolved in saline by intraperitoneal (i.p.) injection for 15 min prior to acetic acid injection. Control animals received the same volume of vehicle (saline: 0.9% sodium chloride solution). After the challenge, mice were individually placed into open polyvinyl cages (30 cm × 40 cm × 30 cm), and the abdominal constriction responses were counted cumulatively during 30 min, which was represented as the sum of constriction (S). The inhibition of pain responses was calculated by the equation as follows: inhibition of pain responses % = (Ssaline − Sdrug)/Ssaline per animal. One hundred percent corresponds to complete reversal of pain, equivalent to the non-injury value, and 0% corresponds to the value from the saline group.

[5] = tested on: neuronal TTX-S VGSCs in rat dorsal root ganglion (DRG) cells; conditions: cited from earlier work
From the text: μ-TRTX-Hhn1b (HNTX-IV) is a 35-residue peptide from tarantula Ornithoctonus hainana (Haplopelma hainanum) venom. The amino acid sequence is […]. The peptide amidated at its C-terminal has a high proportion of basic residues and is crosslinked by three disulfide bonds. […] Therefore, the rotarod latency test was used to access the motor side effects of μ-TRTX-Hhn1b in rats.

human Nav1.7 = target: T1, human Nav1.7 (Homo sapiens, UniProt Q15858); experiment: whole-cell patch clamp, human Nav1.7 transiently expressed in HEK 293 cells; assay type: cell-based
T1 construct: expressed in transfected cells; host or cells: HEK293 cells, transient transfection with Lipofectamine 2000
From the text: Figure 2 Inhibitory effect of synthetic μ-TRTX-Hhn1b on Nav1.7 expressed on HEK 293 cells. […] (B) The inhibition of μ-TRTX-Hhn1b on Nav1.7 was dose-dependent. […] Data are plotted as a fraction of the maximum conductance. The voltage-dependence of steady-state inactivation was estimated using a standard double-pulse protocol, in which a 20-ms depolarizing test potential of 0 mV followed a 500-ms prepulse at potentials that ranged from −130 to −10 mV with a 10-mV increment. Cells were held at −100 mV.
A human Nav1.7 channel plasmid (accession No. NM_002977) and a plasmid for green ﬂuorescent protein were transiently transfected into human embryonic kidney 293 (HEK293) cells using Lipofectamine 2000 (Invitrogen, Carlsbad, CA, USA) according to the manufacturer’s instructions. HEK293 cells were grown under standard tissue culture conditions (5% CO2; 37 °C) in DMEM supplemented with 10% FBS. The β1 subunit was cotransfected with the Nav1.7 channel to increase the current density. Cells with green ﬂuorescence were selected for whole-cell patch-clamp recording at 36–72 h after transfection. Patch-clamp experiments were performed at room temperature. Suction pipettes (2.0–3.0 MΩ) were made from borosilicate glass capillary tubes using a two-step vertical micropipette puller. The pipette solution contained (in mM): CsCl 145, MgCl2∙6H2O 4, HEPES 10, EGTA 10, glucose 10, ATP 2 (pH 7.2). The external solution contained (in mM): NaCl 145, KCl 2.5, CaCl2 1.5, MgCl2.6H2O 1.2, HEPES 10, glucose 10 (pH 7.4). Experimental data were collected and analyzed using the program Pulse/Pulsefit 8.0 (HEKA Electronics, Pfalz, Germany). Macroscopic sodium currents were filtered at 5 kHz and digitized at 20 kHz with an EPC-9 patch-clamp amplifier (HEKA Electronics, Pfalz, Germany). Series resistance was kept near 5 MΩ and compensated to 65%–70%; linear capacitative and leakage currents were digitally subtracted using the P/4 protocol.

T1 sequence (Q15858 other isoform, or with tags, fused parts or gaps): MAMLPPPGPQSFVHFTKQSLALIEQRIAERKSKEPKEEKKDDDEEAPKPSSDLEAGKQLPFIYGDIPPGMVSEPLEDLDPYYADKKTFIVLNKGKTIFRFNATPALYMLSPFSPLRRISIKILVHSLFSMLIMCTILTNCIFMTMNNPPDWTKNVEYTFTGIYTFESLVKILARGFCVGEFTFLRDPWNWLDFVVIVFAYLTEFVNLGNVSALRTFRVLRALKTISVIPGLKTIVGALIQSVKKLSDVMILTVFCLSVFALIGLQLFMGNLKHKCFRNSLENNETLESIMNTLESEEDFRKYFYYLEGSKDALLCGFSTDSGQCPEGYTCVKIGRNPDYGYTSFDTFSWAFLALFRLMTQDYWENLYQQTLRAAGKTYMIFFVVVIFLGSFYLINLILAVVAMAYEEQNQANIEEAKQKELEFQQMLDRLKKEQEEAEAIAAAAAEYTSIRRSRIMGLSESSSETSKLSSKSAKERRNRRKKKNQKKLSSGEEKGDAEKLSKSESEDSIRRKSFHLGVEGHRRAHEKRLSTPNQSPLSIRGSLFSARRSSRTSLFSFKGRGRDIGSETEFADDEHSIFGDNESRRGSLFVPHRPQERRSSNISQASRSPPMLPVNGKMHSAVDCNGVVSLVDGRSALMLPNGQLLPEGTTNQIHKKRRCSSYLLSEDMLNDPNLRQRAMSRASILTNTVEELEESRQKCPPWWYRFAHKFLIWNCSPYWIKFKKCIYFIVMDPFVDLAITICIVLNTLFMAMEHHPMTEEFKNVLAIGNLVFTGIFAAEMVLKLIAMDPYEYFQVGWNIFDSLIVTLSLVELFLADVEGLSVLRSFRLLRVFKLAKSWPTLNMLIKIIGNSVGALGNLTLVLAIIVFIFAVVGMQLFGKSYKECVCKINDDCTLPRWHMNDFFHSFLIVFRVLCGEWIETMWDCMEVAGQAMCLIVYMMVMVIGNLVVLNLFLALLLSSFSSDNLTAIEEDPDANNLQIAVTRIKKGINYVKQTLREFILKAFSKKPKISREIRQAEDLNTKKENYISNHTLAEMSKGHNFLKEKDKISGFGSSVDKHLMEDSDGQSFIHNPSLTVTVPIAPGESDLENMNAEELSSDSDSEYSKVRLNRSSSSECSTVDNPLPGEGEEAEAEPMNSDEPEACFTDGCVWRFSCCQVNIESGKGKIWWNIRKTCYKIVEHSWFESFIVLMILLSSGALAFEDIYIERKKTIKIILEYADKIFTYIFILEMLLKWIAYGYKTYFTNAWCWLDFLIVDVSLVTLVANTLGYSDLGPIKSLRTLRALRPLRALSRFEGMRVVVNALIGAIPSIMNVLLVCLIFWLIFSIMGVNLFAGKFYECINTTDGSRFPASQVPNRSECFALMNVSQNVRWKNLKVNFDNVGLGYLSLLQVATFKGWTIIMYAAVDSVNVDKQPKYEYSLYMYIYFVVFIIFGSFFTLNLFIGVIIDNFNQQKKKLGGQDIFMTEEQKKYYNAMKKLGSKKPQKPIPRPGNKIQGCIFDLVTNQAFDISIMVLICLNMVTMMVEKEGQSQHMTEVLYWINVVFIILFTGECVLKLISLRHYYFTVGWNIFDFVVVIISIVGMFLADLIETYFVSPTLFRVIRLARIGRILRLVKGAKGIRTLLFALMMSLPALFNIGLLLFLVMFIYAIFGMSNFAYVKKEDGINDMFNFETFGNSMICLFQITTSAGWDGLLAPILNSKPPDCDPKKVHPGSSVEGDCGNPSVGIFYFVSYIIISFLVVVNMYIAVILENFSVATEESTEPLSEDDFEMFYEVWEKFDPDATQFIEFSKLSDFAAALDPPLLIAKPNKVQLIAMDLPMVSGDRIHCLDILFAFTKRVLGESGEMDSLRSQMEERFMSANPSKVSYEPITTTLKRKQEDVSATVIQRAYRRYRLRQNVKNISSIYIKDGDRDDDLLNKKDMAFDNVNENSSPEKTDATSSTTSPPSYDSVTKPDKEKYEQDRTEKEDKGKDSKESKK
T1 sequence (Q07699 19-218, further chain): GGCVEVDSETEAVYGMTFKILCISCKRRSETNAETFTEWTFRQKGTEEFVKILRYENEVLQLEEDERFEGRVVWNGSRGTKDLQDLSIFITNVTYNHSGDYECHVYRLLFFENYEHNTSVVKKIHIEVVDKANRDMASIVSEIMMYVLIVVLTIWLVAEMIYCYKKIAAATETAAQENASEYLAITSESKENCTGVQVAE

CC[C@H](C)[C@H](NC(=O)[C@H](CCC(=O)O)NC(=O)[C@H](Cc1ccc(O)cc1)NC(=O)[C@H](CCCCN)NC(=O)[C@@H]1CSSC[C@@H]2NC(=O)[C@H](CCC(N)=O)NC(=O)[C@H](CC(=O)O)NC(=O)[C@H](CC(N)=O)NC(=O)[C@H](CO)NC(=O)[C@@H]3CCCN3C(=O)[C@H](CC(N)=O)NC(=O)[C@@H]3CSSC[C@H](NC(=O)[C@H](C(C)C)NC(=O)[C@H](CC(C)C)NC(=O)[C@H](CC(N)=O)NC(=O)[C@H](CO)NC(=O)[C@H](CO)NC(=O)[C@H](CCCCN)NC(=O)[C@H](CSSC[C@H](NC(=O)[C@@H](N)CCC(=O)O)C(=O)N[C@@H](CC(C)C)C(=O)NCC(=O)N[C@@H](Cc4ccccc4)C(=O)NCC(=O)N[C@@H](CCCCN)C(=O)NCC(=O)N3)NC2=O)C(=O)N[C@@H](CO)C(=O)N[C@@H](CCCNC(=N)N)C(=O)N[C@@H](CCCCN)C(=O)N[C@@H](Cc2c[nH]cn2)C(=O)N[C@@H](CCCNC(=N)N)C(=O)N[C@@H](Cc2c[nH]c3ccccc23)C(=O)N1)C(N)=O [μ-TRTX-Hhn1b]
sensitivity of Nav1.7 relative to other channels [1]: Nav1.7 is the most sensitive to μ-TRTX-Hhn1b
pain score over the 40 min period ([2]; 50 µg/kg i.p., n = 6, p < 0.05): 458.5 ± 59.9 s
pain score over the 40 min period ([2]; 100 µg/kg i.p., n = 6, p < 0.01): 346.0 ± 46.2 s
pain score over the 40 min period ([2]; 200 µg/kg i.p., n = 6, p < 0.01): 199.8 ± 32.6 s
antinociceptive activity compared with morphine ([2]; 200 µg/kg peptide vs 100 µg/kg morphine, i.p.): antinociceptive activity similar to 100 µg/kg of morphine
effect on pain responses, early phase ([2]; early phase (0–5 min), 50, 100 or 200 µg/kg i.p.): not in the early phases; also recorded: little effect
suppression of pain behaviors, late phase ([2]; late phase (15–30 min), 50, 100 or 200 µg/kg i.p.): dose-dependent suppression of pain behaviors; also recorded: significantly inhibited
reversal of SNI-induced mechanical allodynia ([3]; 50 µg/kg, 100 µg/kg or 200 µg/kg i.p., n = 6 per group): depressed in a dose-dependent manner; also recorded: significantly reversed SNI-induced allodynia
withdrawal threshold to von Frey hair ([3]; 60 min after injection, saline 1.4 ± 0.4 g, p < 0.01): 8.8 ± 0.9 g
withdrawal threshold to von Frey hair ([3]; 100 min after injection, p < 0.05): 4.0 ± 0.6 g
duration of antinociceptive effect ([3]; i.p.): more than 100 min
duration of antinociceptive effect relative to mexiletine ([3]; i.p.): about two-fold longer than that of mexiletine
inhibition of pain responses (abdominal constriction) ([4]; 25.0 μg/kg i.p., p < 0.05): 25.2%
inhibition of pain responses (abdominal constriction) ([4]; 100 μg/kg i.p., p < 0.01): 55.6%
inhibition of other TTX-S VGSCs ([5]; at a high concentration, reference not given): also inhibits other TTX-S VGSCs in rat DRG cells at a high concentration
inhibition of neuronal TTX-S VGSCs [5]: specifically inhibits the neuronal TTX-S VGSCs in rat dorsal root ganglion (DRG) cells
effect on activation and inactivation of Nav1.7 (human Nav1.7; 50 nM synthetic peptide): did not significantly alter the activation (C) and steady-state inactivation (D) of Nav1.7; also recorded: inhibited the peak current of Nav1.7 without significant alteration of the activation and inactivation kinetics of Nav1.7
half-activation voltage of Nav1.7 (human Nav1.7; 50 nM synthetic peptide, Boltzmann fit): −23.0 ± 0.4 mV
half-inactivation voltage of Nav1.7 (human Nav1.7; 50 nM synthetic peptide, steady-state inactivation, Boltzmann fit): −47.1 ± 0.3 mV
τon, time-dependent inhibition of Nav1.7 (human Nav1.7; 100 nM synthetic peptide, HEK 293 cells): 20.5 ± 0.3 s
inhibitory effect of synthetic peptide compared with native toxin (human Nav1.7; human Nav1.7 in HEK 293 cells): same inhibitory effect on human Nav1.7 current transiently expressed in HEK 293 cells as the native toxin
IC50 (human Nav1.7; synthetic peptide, human Nav1.7 + β1 subunit in HEK 293 cells, whole-cell patch clamp, room temperature, 50-ms depolarization from −80 mV to −10 mV, mean ± S.E., five to eight cells, read-out: IC50, inhibition of Nav1.7 current): ~21 nM

— paper PMC4147587, “Synthesis and Analgesic Effects of μ-TRTX-Hhn1b on Models of Inflammatory and Neuropathic Pain” (Toxins, 2014)
